The target in one test is ERα (wild type) (Homo sapiens (Human), UniProt P03372). The test is described as follows: ERα (wild type) competition binding assay. Conditions: 3H-estradiol competition; Ki from IC50 by Cheng-Prusoff. Here is the method: Add the test compound at 10 different concentrations ranging from 10,000 nM to 0.5 nM, and determine nonspecific binding in the presence of 1 μM of 1713 estradiol. Incubate the binding reaction (140 μL) for 4 hours at room temperature, and then add cold dextran-charcoal buffer (70 μL) (containing per 50 mL of assay buffer, 0.75 g of charcoal and 0.25 g of dextran) to each reaction. Mix the plates for 8 minutes on an orbital shaker at 4° C. and then centrifuge at 3000 rpm at 4° C. for 10 minutes. Transfer an aliquot (120 μL) of the mixture to another 96-well, white flat bottom plate (Costar) and add Perkin Elmer Optiphase Supermix scintillation fluid (175 μL) to each well. Seal the plates and shake vigorously on an orbital shaker. After an incubation of 2.5 hours, read the plates in a Wallac Microbeta counter. […] Convert the IC50 values for the compound to Ki using Cheng-Prusoff equation.
ERα (wild type), sequence (P03372 whole entry): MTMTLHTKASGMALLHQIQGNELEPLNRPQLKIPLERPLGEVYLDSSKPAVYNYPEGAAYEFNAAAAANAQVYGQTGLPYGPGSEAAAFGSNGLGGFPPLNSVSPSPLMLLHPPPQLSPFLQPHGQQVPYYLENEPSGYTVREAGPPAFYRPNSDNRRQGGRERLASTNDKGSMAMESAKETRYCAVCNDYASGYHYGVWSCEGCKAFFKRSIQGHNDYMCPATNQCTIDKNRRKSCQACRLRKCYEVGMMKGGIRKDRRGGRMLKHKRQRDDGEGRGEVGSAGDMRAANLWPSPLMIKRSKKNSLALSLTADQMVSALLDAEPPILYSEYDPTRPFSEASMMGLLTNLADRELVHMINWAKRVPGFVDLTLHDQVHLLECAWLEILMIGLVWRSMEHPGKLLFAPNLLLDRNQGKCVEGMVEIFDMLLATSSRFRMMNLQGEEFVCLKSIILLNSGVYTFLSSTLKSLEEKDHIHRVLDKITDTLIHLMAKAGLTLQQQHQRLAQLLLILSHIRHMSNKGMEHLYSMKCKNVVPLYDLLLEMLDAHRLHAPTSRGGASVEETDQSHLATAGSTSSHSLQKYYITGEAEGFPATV

Test [1] concerns the target Y537N mutant ERα receptor (Homo sapiens, UniProt P03372, Y537N). The test is described as follows: PRα inhibition (ERα functional antagonism) cell assay in MCF7-ESR1 Y537N 682 CRISPR cells. The class given is cell-based. As to conditions: MCF7 Y537N 682 CRISPR cells, 72 hours, % PR positive cells; read-out: Relative IC50. How it is done: An antagonist in this assay is expected to block the function of the ERα receptor.
Incubate the cells overnight in a cell culture incubator (5% CO2, 95% relative humidity and 37° C.) and allow the cells to attach to the plate. The following day dose the cells with the test compound. Use an Echo 555 acoustic dispenser to prepare compound serial dilutions (1:3) in a range from 6 μM to 0.0003 μM. Dose the cells with the addition of 5 μL from the serial dilution plate to the cell plate producing a final DMSO concentration of 0.2% with a final test compound concentration dose range between 2 and 0.0001 μM. For the maximum point use media containing 0.2% of DMSO and for the minimum point, use fulvestrant diluted at 2 μM final concentrations in the growth media containing 0.2% DMSO. After dosing with test compound, incubate the cell plates at 37° C. and 5% CO2 for 72 hours. Fix the cells by adding 14% para-formaldehyde (10 μL) for 30 minutes at room temperature. Wash the cells with PBS (1×20 μL) and incubate with PBS (20 μL) of containing 0.5% (v/v) TWEEN® 20 for 1 hour. Wash the cells with PBS (2×20 μL) 0.05% TWEEN® 20, and block with 3% BSA/PBS 0.05% TWEEN® 20, 0.1% TRITON™ X-100 (20 μL/well) for 1 hour at room temperature. Add 1:500 primary antibody (20 μL) (PR monoclonal mouse anti-human antibody, clone PgR 636 Dako, M3569) dilution in 1% BSA/PBS 0.05 TWEEN® 20 per well, seal the plates and incubate overnight at 4° C.
The following day, wash the cells with PBS […] (2×20 μL) and incubate with secondary antibody (20 μL/well) (1:1000 dilution, Goat anti-rabbit IgM ALEXA FLUOR™ 488) in PBS 1% BSA for 105 minutes at room temperature. […] Seal the plates and incubate 1 hour at room temperature on the bench (preserved from light). Scan the plates with ACUMEN EXPLORER™ [Laser-scanning fluorescence microplate cytometer manufactured by TTP LABTECH LTD] to measure PRα. Image analysis is based on cellular fluorescent signals for identifying positive cells. Identify PR positive cells by mean intensity. Use total intensity at 575-640 nm from propidium iodide/DNA to identify individual cells. Assay output is % PR positive cells. Determine the IC50 by curve fitting to a four parameter logistic for each output using GENE DATA™.

The subject of test [2] is MCF7 ESR1 Y537N mutant cells. The test is described as follows: Cell proliferation assay in MCF7-ESR1 Y537N-682. The format is cell-based, human. Conditions: seven days, read-out: Relative IC50 (μM) MCF7 ESR1 Y537N mutant cells. Here is the method:
Seed MCF7 (purchased from ATCC HTB-22) cells at a density of 2,000 cells per well in DMEM phenol red free media 10% FBS (20 μL volume) (charcoal stripped) into a clear bottom 384-well cell culture plate. Plate MCF7-ESRY537N-682 (generated by CRISPR/Cas9 gene editing of ESr1 gene in MCF7 cells, clone #682) in DMEM media supplemented with 10% FBS, and 1% penicillin/streptomycin antibiotics at a density of 1000 cells per well. Incubate the plates at 37° C. and 5% CO2. The following day dose the cells with the test compound. Use an Echo 555 acoustic dispenser to prepare test compound serial dilutions (1:3) in a range from 60 μM to 0.003 μM. Dose the cells with the addition of 5 μL from the serial dilution plate to the cell plate, producing a final DMSO concentration of 0.2% with a final test compound concentration dose range between 20 and 0.001 μM. For the maximum point use media containing 0.2% of DMSO and for the minimum point use fulvestrant diluted at 2 μM final concentrations in the growth media containing 0.2% DMSO. After dosing with the test compound, incubate the cell plates at 37° C. and 5% CO2. Seven days after test compound addition, remove the plates from the incubator and add cold EtOH 96% (65 μL) to each well. […] Seal the plates and incubate 1 hour at room temperature on the bench (preserved from light). Scan the plates with ACUMEN EXPLORER™ [Laser-scanning fluorescence microplate cytometer manufactured by TTP LABTECH LTD].

Where two headings read alike, the source gives them in different places.

The values that follow come from patent publication US10654866B2, “Selective estrogen receptor degraders” (Eli Lilly and Company, priority 2018, dated 2020).

As usually defined, the Ki is the dissociation constant of the complex between target and ligand, obtained from inhibition or displacement. What is called IC50 is the point on the concentration scale where inhibition reaches its midpoint. On ERα (wild type), `Oc1ccc2c3c(cnc2c1)-c1cccc(C(F)(F)F)c1OC3c1ccc(OCCN2CC(CF)C2)cc1` (racemic) [Example 2, 5-(4-{2-[3-(fluoromethyl)azetidin-1-yl]ethoxy}phenyl)-7-(trifluoromethyl)-5H-[1]benzopyrano[4,3-c]quinolin-2-ol] yielded a Ki of 2.17 nM. In addition, the half-inhibitory concentration (IC50) in test [1] turned out to be 14.5 ± 2.62 nM; in test [2] (Homo sapiens, MCF7, […]) it was 0.0511 µM.
For `Oc1ccc2c3c(cnc2c1)-c1cccc(Cl)c1OC3c1ccc(OCCN2CC(CF)C2)cc1` (racemic) [Example 4, 7-chloro-5-(4-{2-[3-(fluoromethyl)azetidin-1-yl]ethoxy}phenyl)-5H-[1]benzopyrano[4,3-c]quinolin-2-ol], in that order: 0.64 nM, 38.5 ± 3.87 nM and 0.0266 µM.
Taken in the same sequence, the figures for `Oc1ccc2c3c(cnc2c1)-c1ccc(F)cc1OC3c1ccc(OCCN2CC(CF)C2)cc1` (racemic) [Example 5, 8-fluoro-5-(4-{2-[3-(fluoromethyl)azetidin-1-yl]ethoxy}phenyl)-5H-[1]benzopyrano[4,3-c]quinolin-2-ol] were 2.82 nM, 66.1 ± 15.5 nM and 0.0725 ± 0.0263 µM.
On ERα (wild type), `Oc1ccc2c3c(cnc2c1)-c1cccc(F)c1OC3c1ccc(OCCN2CC(CF)C2)cc1` (racemic) [Example 6, 7-fluoro-5-(4-{2-[3-(fluoromethyl)azetidin-1-yl]ethoxy}phenyl)-5H-[1]benzopyrano[4,3-c]quinolin-2-ol] yielded a Ki of 4.14 nM. Also, the IC50 was determined as 63.2 ± 16.1 nM in test [1] and 0.0236 µM in test [2] (Homo sapiens, MCF7, […]).
For `Cc1ccc2c(c1)OC(c1ccc(OCCN3CC(CF)C3)cc1)c1c-2cnc2cc(O)ccc12` (racemic) [Example 7, 5-(4-{2-[3-(fluoromethyl)azetidin-1-yl]ethoxy}phenyl)-8-methyl-5H-[1]benzopyrano[4,3-c]quinolin-2-ol], in that order: 1.55 nM, 127 nM and 0.0448 ± 0.0119 µM.
At ERα (wild type), `Cc1cccc2c1OC(c1ccc(OCCN3CC(CF)C3)cc1)c1c-2cnc2cc(O)ccc12` (racemic) [Example 8, 5-(4-{2-[3-(fluoromethyl)azetidin-1-yl]ethoxy}phenyl)-7-methyl-5H-[1]benzopyrano[4,3-c]quinolin-2-ol] came in with a Ki of 3.2 nM. The IC50 was determined as 41.2 ± 6.57 nM in test [1] and 0.0329 ± 0.003 µM in test [2] (Homo sapiens, MCF7, […]).
Compound `Oc1ccc2c3c(cnc2c1)-c1cccc(C(F)(F)F)c1OC3c1ccc(OCCN2CC(CF)C2)cc1` (single isomer, unassigned) [Example 2A, 5-(4-{2-[3-(Fluoromethyl)azetidin-1-yl]ethoxy}phenyl)-7-(trifluoromethyl)-5H-[1]benzopyrano[4,3-c]quinolin-2-ol] came in with a Ki on ERα (wild type) of 0.65 nM. Also, the figures for the IC50 in test [1] and in test [2] were 24.9 ± 7.39 nM and 0.0428 ± 0.00267 µM, respectively.
`Oc1ccc2c3c(cnc2c1)-c1cccc(C(F)(F)F)c1OC3c1ccc(OCCN2CC(CF)C2)cc1` (single isomer, unassigned) [Example 2B, 5-(4-{2-[3-(Fluoromethyl)azetidin-1-yl]ethoxy}phenyl)-7-(trifluoromethyl)-5H-[1]benzopyrano[4,3-c]quinolin-2-ol] registered an inhibition constant Ki on ERα (wild type) of 60.4 nM. In addition, the IC50 in test [1] turned out to be 1640 ± 223 nM; in test [2], 0.778 µM.
On ERα (wild type), `Oc1ccc2c3c(cnc2c1)-c1cccc(Cl)c1OC3c1ccc(OCCN2CC(CF)C2)cc1` (single isomer, unassigned) [Example 4A, 7-Chloro-5-(4-{2-[3-(fluoromethyl)azetidin-1-yl]ethoxy}phenyl)-5H-[1]benzopyrano[4,3-c]quinolin-2-ol] had a Ki of 16.8 nM. Further, the values for the IC50 in test [1] and in test [2] were 505 nM and 0.544 ± 0.218 µM, respectively.
`Oc1ccc2c3c(cnc2c1)-c1cccc(Cl)c1OC3c1ccc(OCCN2CC(CF)C2)cc1` (single isomer, unassigned) [Example 4B, 7-Chloro-5-(4-{2-[3-(fluoromethyl)azetidin-1-yl]ethoxy}phenyl)-5H-[1]benzopyrano[4,3-c]quinolin-2-ol]: the Ki at ERα (wild type) is 0.34 nM. Also, the IC50 in test [1] amounted to 11.8 nM; in test [2], 0.0143 ± 0.00492 µM.
Taken in the same sequence, the figures for `Oc1ccc2c3c(cnc2c1)-c1ccc(F)cc1OC3c1ccc(OCCN2CC(CF)C2)cc1` (single isomer, unassigned) [Example 5A, 8-Fluoro-5-(4-{2-[3-(fluoromethyl)azetidin-1-yl]ethoxy}phenyl)-5H-[1]benzopyrano[4,3-c]quinolin-2-ol] were 12.5 nM, 394 nM and 0.517 ± 0.095 µM.
For `Oc1ccc2c3c(cnc2c1)-c1ccc(F)cc1OC3c1ccc(OCCN2CC(CF)C2)cc1` (single isomer, unassigned) [Example 5B, 8-Fluoro-5-(4-{2-[3-(fluoromethyl)azetidin-1-yl]ethoxy}phenyl)-5H-[1]benzopyrano[4,3-c]quinolin-2-ol], in that order: 1.3 nM, 18.2 ± 9.82 nM and 0.0213 ± 0.013 µM.
For `Oc1ccc2c3c(cnc2c1)-c1cccc(F)c1OC3c1ccc(OCCN2CC(CF)C2)cc1` (single isomer, unassigned) [Example 6A, 7-Fluoro-5-(4-{2-[3-(fluoromethyl)azetidin-1-yl]ethoxy}phenyl)-5H-[1]benzopyrano[4,3-c]quinolin-2-ol], in that order: 8.53 nM, 236 nM and 0.323 ± 0.176 µM.
For `Oc1ccc2c3c(cnc2c1)-c1cccc(F)c1OC3c1ccc(OCCN2CC(CF)C2)cc1` (single isomer, unassigned) [Example 6B, 7-Fluoro-5-(4-{2-[3-(fluoromethyl)azetidin-1-yl]ethoxy}phenyl)-5H-[1]benzopyrano[4,3-c]quinolin-2-ol], the affinity at ERα (wild type), expressed as Ki, was 1.13 nM. Further, the IC50 stood at 13.6 nM in test [1] and 0.0154 µM in test [2].
With `Cc1cccc2c1OC(c1ccc(OCCN3CC(CF)C3)cc1)c1c-2cnc2cc(O)ccc12` (single isomer, unassigned) [Example 8A, 5-(4-{2-[3-(Fluoromethyl)azetidin-1-yl]ethoxy}phenyl)-7-methyl-5H-[1]benzopyrano[4,3-c]quinolin-2-ol], the inhibitory constant (Ki) on ERα (wild type) is 9.33 nM. Besides, the IC50 in test [1] was determined as 434 ± 195 nM; in test [2], 0.662 ± 0.117 µM.
For `Cc1cccc2c1OC(c1ccc(OCCN3CC(CF)C3)cc1)c1c-2cnc2cc(O)ccc12` (single isomer, unassigned) [Example 8B, 5-(4-{2-[3-(Fluoromethyl)azetidin-1-yl]ethoxy}phenyl)-7-methyl-5H-[1]benzopyrano[4,3-c]quinolin-2-ol], in that order: 0.94 nM, 8.93 ± 3.83 nM and 0.0142 ± 0.0111 µM.
